Measured values from PMC6201879, “N-substituted phenylbenzamides of the niclosamide chemotype attenuate obesity related changes in high fat diet fed mice” (PLoS ONE, 2018).

Columns and labels:
[1] = system: Salmonella typhimurium (TA98, TA100, TA1535 and TA1537) and Escherichia coli (WP2 uvrA (pKM101)); test: Ames assay, overall outcome and cytotoxicity across strains
[2] = system: carbonic anhydrase-III (CAIII); test: Western blot of carbonic anhydrase III in liver of HFD-fed mice; details: HFD fed-DIO mice; 10mg/kg for 12 days; vs sham
[3] = system: p-AMPK Thr-172; test: Western blot of p-AMPK Thr-172 in liver of HFD-fed mice; details: HFD fed-DIO mice; 10mg/kg for 12 days; vs sham
[4] = Metabolic stability in mouse liver microsomes; assay type: in vitro ADME; details: for Remaining Percentage of 60 min (%), Mouse, Tested Sample: 0.5mg/ml microsomes and 1mM NADPH; for Remaining Percentage of 60 min (%), Mouse, Negative Control: 0.5mg/ml microsomes without NADPH; for Remaining Percentage of 60 min (%), Mouse, Heat-inactivated Control: heat inactivated microsomes without NADPH
Experimental: Three experiments were performed with 1) 0.5mg/ml microsomes and 1mM NADPH, 2) 0.5mg/ml microsomes without NADPH and 3) 0.5mg/ml heat inactivated microsomes without NADPH in 100mM phosphate buffer, containing 5mM magnesium chloride. […] At the indicated time points, 50μl samples were removed and stopped by addition of 4 volumes of cold acetonitrile with internal standards, 100nM alprazolam, 200nM labetalol and 2μM ketoprofen. The samples were centrifuged at 3,220 g for 40 minutes and aliquots of 100μl were subsequently diluted with 100μl of ultra-pure water and analyzed by LC/MS/MS using a (Shimadzu corporation) LC system coupled to a Shimadzu Triple Quad 5500 mass spectrometer with an ESI interface. The LC system used a Waters XSelect HSS T3 C18, 2.5μm, 2.1 x 50 mm column eluted with one of two methods using mobile phases A (water, 0.1% formic acid) and B (acetonitrile, 0.1% formic acid). […] The Shimadzu Triple Quad 5500 MS was operated with the following parameters: Ion source: Turbo spray; Ionization mode: ESI; Scan type: MRM; Collision gas: 10 L/min; Curtain gas: 30 L/min; Nebulize gas: 50 L/min; Auxiliary gas: 50 L/min; Temperature: 500°C; Ionspray voltage: +5500 V (positive MRM). All experiments were performed in duplicate. Data were analyzed using Microsoft excel, and peak areas were determined from extracted ion chromatograms.

[5] = system: fatty acid synthase (FAS); test: Western blot of fatty acid synthase in liver of HFD-fed mice; details: HFD fed-DIO mice; 10mg/kg for 12 days; vs sham
[6] = system: Salmonella typhimurium TA98; test: Ames assay, strain TA98; details: for Mean Revertant Colony Counts TA98 SP9+: with S9; for Mean Revertant Colony Counts TA98 S9-: without S9
[7] = Body weight changes in HFD-fed mice; assay type: in vivo, mouse; details: 10mg/kg I.P daily for 12 days
Experimental: We next measured body weight changes in HFD-fed animals prior to treatment with niclosamide or phenylbenzamide derivatives and after 12 days, prior to sacrifice. During this time, all animals (including sham) lost some weight.
20-week old animals were treated IP with 500199 at 10 or 25mg/kg by IP over a time-course of 9 days. At day 0, 3, 6 and 9 animals were weighed and tissue samples were collected for standard histological scoring of hepatic steatosis and automated quantitative histomorphometric scoring.

[8] = system: phospho-AMPK Thr-172 (p-AMPK); test: Western blot of phospho-AMPK Thr-172 in HEK293T cells; assay type: cell-based, human; details: 1 and 10μM, negatives re-screened at 5 and 20 μM, 3 hours
Experimental: AMPK is a metabolic sensor that maintains cellular energy supply. As validation of these changes in lipid metabolism and cellular respiration we evaluated phospho-AMPK Thr-172 (p-AMPK) levels by Western blot in HEK293 cells treated with the phenylbenzamide derivatives. Compounds were screened at 1 and 10μM using the known uncouplers niclosamide and FCCP as positive controls (Fig 4A). […] We concluded that compounds that had little effect on oxygen consumption rates also had little effect on phosphorylation of AMPK.

Compound | Remaining Percentage of 60 min (%), Mouse, Tested Sample [4] | Remaining Percentage of 60 min (%), Mouse, Negative Control [4] | Remaining Percentage of 60 min (%), Mouse, Heat-inactivated Control [4] | Mean Revertant Colony Counts TA98 SP9+ ([6]; 1.5 ug/Well) | Mean Revertant Colony Counts TA98 S9- ([6]; 1.5 ug/Well) | Mean Revertant Colony Counts TA98 SP9+ ([6]; 4 ug/Well) | Mean Revertant Colony Counts TA98 S9- ([6]; 4 ug/Well) | Mean Revertant Colony Counts TA98 SP9+ ([6]; 10 ug/Well) | Mean Revertant Colony Counts TA98 S9- ([6]; 10 ug/Well) | Mean Revertant Colony Counts TA98 SP9+ ([6]; 25 ug/Well) | Mean Revertant Colony Counts TA98 S9- ([6]; 25 ug/Well) | Mean Revertant Colony Counts TA98 SP9+ ([6]; 64 ug/Well) | Mean Revertant Colony Counts TA98 S9- ([6]; 64 ug/Well) | Mean Revertant Colony Counts TA98 SP9+ ([6]; 160 ug/Well) | Mean Revertant Colony Counts TA98 S9- ([6]; 160 ug/Well) | Mean Revertant Colony Counts TA98 SP9+ ([6]; 400 ug/Well) | Mean Revertant Colony Counts TA98 S9- ([6]; 400 ug/Well) | Mean Revertant Colony Counts TA98 SP9+ ([6]; 1000 ug/Well) | Mean Revertant Colony Counts TA98 S9- ([6]; 1000 ug/Well) | also measured
CC(C)(C)c1ccc(O)c(C(=O)Nc2ccc(C(=O)O)cc2Cl)c1 [Compound 500200, 4-[(5-tert-butyl-2-hydroxybenzene)amido]-3-chlorobenzoic acid] | 101.2% | 111.5% | 102.7% | 7.7 | 9.0 | 6.3 | 12.0 | 9.0 | 8.7 | 7.3 | 9.0 | 9.0 | 7.7 | 11.0 | 5.0 | 7.0 | 9.7 | 4.3 | 4.3 | Ames assay outcome (mutagenicity) [1]: negative; cytotoxicity in the Ames assay ([1]; relative to the negative control, presence and absence of S9 mix): cytotoxicity was exhibited at the highest concentrations in both strains; CAIII protein levels in liver [2]: reduced; phosphorylation of AMPK at Thr-172 in liver [3]: stimulated phosphorylation of AMPK at Thr-172; FAS protein levels in liver [5]: reduced; fold increase in the mean number of revertant colonies, TA98 ([6]; any concentration tested, vs negative control): < 2 fold
CC(C)(C)c1ccc(O)c(C(=O)Nc2ccc(C(=O)O)cc2C(F)(F)F)c1 [Compound 500873, 4-[(5-tert-butyl-2-hydroxy)amido]-3-(trifluoromethyl)benzoic acid] | 107.5% | 106.4% | 105.5% | 5.7 | 5.0 | 6.0 | 9.0 | 6.3 | 4.0 | 9.3 | 7.7 | 8.3 | 11.7 | 10.3 | 10.0 | 14.0 | 11.7 | 16.3 | 14.0 | stability in MLM ([4]; 60 minutes): stable; body weight change vs sham [7]: lost weight but this loss failed to reach significance; phosphorylation of AMPK (p-AMPK Thr-172) by Western blot [8]: no detectable changes in pAMPK levels; fold increase in revertant colonies, TA98 ([6]; 1000 μg/well in the absence of S9 mix): ≥ 2 fold
CC(C)(C)c1ccc(O)c(C(=O)Nc2cc(C(=O)O)ccc2Cl)c1 [Compound 600494, 3-{[2-Hydroxy-5-(tert-butyl)benzene]amido}-4chloro-benzoic acid] | 109.6% | 68.9% | 98.5% | 8.7 | 7.3 | 9.3 | 7.7 | 7.7 | 7.3 | 12.0 | 6.7 | 8.0 | 6.0 | 15.7 | 11.7 | 10.3 | 14.0 | 11.3 | 10.7 | fold increase in revertant colonies, TA98 ([6]; 400 μg/well in the absence of S9 mix): ≥ 2 fold
